The target in test [1] is Histamine H1 receptor (Cavia porcellus, UniProt P31389). The test can be described thus: Antagonist activity at histamine H1 receptor in guinea pig ileum assessed as inhibition of histamine-induced contractions. The settings on record: read-out: pA2 (converted). It is filed as functional, tissue-based.
The target of test [2] is T1, Histamine H3 receptor (Homo sapiens, UniProt Q9Y5N1). The test can be described thus: Agonist activity at human H3 receptor expressed in insect Sf9 cells co-expressing Gialpha2, Gbeta1gamma2 and RGS4 assessed as gamma[32P]GTP binding by liquid scintillation counting.
T1 sequence (Q9Y5N1 whole entry): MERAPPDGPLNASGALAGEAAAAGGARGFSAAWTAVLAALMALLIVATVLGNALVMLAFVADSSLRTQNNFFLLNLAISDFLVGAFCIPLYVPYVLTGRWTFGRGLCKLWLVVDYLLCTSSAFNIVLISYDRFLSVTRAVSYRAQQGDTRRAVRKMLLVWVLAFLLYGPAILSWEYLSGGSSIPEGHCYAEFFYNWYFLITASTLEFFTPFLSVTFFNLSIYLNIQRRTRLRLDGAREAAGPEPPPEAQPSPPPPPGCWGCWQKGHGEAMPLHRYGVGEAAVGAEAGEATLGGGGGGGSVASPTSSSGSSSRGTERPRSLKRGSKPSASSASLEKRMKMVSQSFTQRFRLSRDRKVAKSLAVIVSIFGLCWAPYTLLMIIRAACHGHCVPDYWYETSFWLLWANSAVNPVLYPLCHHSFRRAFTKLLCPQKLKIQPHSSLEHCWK
Test [3] addresses Histamine H2 receptor (Cavia porcellus) (UniProt P47747). Nature of the test: Agonist activity at histamine H2 receptor in guinea pig atrium assessed as maximal increase in heart rate relative to histamine. The following applies: Cardiac atrium. It is filed as functional, tissue-based.
In test [4] the target is T2, Histamine H2 receptor (Homo sapiens, UniProt P25021). Nature of the test: Agonist activity at human H2 receptor expressed in insect Sf9 cells co-expressing GsalphaS fusion protein assessed as gamma[32P]GTP binding by liquid scintillation counting.
T2 sequence (P25021 whole entry, the tested form may be a part): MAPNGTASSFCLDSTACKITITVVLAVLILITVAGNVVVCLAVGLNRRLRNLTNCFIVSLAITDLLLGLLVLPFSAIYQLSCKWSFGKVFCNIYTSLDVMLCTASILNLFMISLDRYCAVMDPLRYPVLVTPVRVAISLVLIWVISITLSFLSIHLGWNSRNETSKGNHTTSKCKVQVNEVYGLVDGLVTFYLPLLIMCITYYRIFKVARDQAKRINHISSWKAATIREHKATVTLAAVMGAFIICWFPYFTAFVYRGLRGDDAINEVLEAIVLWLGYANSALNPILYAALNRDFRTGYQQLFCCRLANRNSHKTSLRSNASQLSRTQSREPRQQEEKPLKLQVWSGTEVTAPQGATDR
Test [5] has as its target T1, Histamine H3 receptor. Nature of the test: Intrinsic activity at human H3 receptor expressed in insect Sf9 cells co-expressing Gialpha2, Gbeta1gamma2 and RGS4 assessed as gamma[32P]GTP binding at 10 uM by liquid scintillation counting relative to histamine.
In test [6] the target is T3, Histamine H4 receptor (Homo sapiens, UniProt Q9H3N8). Nature of the test: Intrinsic activity at human H4 receptor expressed in insect Sf9 cells co-expressing RGS19 fusion protein and Gialpha2, Gbeta1gamma2 assessed as gamma[32P]GTP binding at 10 uM by liquid scintillation counting relative to histamine.
T3 sequence (Q9H3N8 whole entry, the tested form may be a part): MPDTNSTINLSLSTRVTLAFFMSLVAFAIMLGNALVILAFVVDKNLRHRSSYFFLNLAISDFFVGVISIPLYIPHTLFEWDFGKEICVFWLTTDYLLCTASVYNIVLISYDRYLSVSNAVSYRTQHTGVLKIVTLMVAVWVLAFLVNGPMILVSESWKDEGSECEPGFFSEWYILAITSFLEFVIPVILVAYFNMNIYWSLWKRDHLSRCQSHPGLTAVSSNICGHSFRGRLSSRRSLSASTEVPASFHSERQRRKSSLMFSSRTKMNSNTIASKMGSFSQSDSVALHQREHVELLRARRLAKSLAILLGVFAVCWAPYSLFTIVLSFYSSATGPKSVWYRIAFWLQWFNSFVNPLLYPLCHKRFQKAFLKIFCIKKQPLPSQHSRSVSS
Test [7] has as its target T4, Histamine H2 receptor (Cavia porcellus, UniProt P47747). Nature of the test: Agonist activity at histamine H2 receptor in guinea pig atrium assessed as increase in heart rate. It counts as functional, tissue-based, Cardiac atrium.
Test [8] concerns the target T3, Histamine H4 receptor. Nature of the test: Agonist activity at human H4 receptor expressed in insect Sf9 cells co-expressing RGS19 fusion protein and Gialpha2, Gbeta1gamma2 assessed as gamma[32P]GTP binding by liquid scintillation counting.
Test [9] concerns the target T2, Histamine H2 receptor. The test can be described thus: Intrinsic activity at human H2 receptor expressed in insect Sf9 cells co-expressing GsalphaS fusion protein assessed as gamma[32P]GTP binding at 10 uM by liquid scintillation counting relative to histamine.
For test [10], the target named is T1, Histamine H3 receptor. Nature of the test: Antagonist activity at human H3 receptor expressed in insect Sf9 cells co-expressing Gialpha2, Gbeta1gamma2 and RGS4 assessed as inhibition of histamine-induced gamma[32P]GTP binding by liquid scintillation counting.
In test [11] the target is T3, Histamine H4 receptor. Nature of the test: Antagonist activity at human H4 receptor expressed in insect Sf9 cells co-expressing RGS19 fusion protein and Gialpha2, Gbeta1gamma2 assessed as inhibition of histamine-induced gamma[32P]GTP binding by liquid scintillation counting.
The target in test [12] is T5, Histamine H1 receptor (Homo sapiens, UniProt P35367). The test can be described thus: Agonist activity at human H1 receptor expressed in insect Sf9 cells co-expressing RGS4 assessed as gamma[32P]GTP binding by liquid scintillation counting.
T5 sequence (P35367 whole entry): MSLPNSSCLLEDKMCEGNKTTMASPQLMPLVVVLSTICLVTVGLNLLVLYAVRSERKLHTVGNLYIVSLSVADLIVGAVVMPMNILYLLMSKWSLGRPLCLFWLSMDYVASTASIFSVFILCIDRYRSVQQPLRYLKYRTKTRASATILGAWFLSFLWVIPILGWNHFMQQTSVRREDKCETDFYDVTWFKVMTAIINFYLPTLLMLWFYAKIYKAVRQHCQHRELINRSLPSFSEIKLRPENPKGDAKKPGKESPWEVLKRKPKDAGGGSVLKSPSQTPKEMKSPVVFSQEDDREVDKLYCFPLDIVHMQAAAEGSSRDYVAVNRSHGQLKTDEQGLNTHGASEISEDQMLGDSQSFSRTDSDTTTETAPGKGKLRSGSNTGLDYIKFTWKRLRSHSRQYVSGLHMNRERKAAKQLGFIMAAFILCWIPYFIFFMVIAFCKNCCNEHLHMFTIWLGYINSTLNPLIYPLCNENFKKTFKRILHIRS
Test [13] deals with T5, Histamine H1 receptor. The test can be described thus: Intrinsic activity at human H1 receptor expressed in insect Sf9 cells co-expressing RGS4 assessed as gamma[32P]GTP binding at 10 uM by liquid scintillation counting relative to histamine.
For test [14], the target named is T5, Histamine H1 receptor. Nature of the test: Antagonist activity at human H1 receptor expressed in insect Sf9 cells co-expressing RGS4 assessed as inhibition of histamine-induced gamma[32P]GTP binding by liquid scintillation counting.
The target in test [15] is T4, Histamine H2 receptor. Nature of the test: Antagonist activity at histamine H2 receptor in guinea pig right atrium assessed as inhibition of histamine-induced increase in heart rate. It is filed as functional, tissue-based, Cardiac atrium. The following applies: read-out: pA2 (converted).
The species named for test [16] is Homo sapiens. The test can be described thus: Selectivity ratio of EC50 for human H1R to EC50 for human H4R.
The species named for test [17] is Homo sapiens. Nature of the test: Selectivity ratio of EC50 for human H2R to EC50 for human H4R.

Sequence of Histamine H2 receptor (Cavia porcellus) (P47747 whole entry, the tested form may be a part): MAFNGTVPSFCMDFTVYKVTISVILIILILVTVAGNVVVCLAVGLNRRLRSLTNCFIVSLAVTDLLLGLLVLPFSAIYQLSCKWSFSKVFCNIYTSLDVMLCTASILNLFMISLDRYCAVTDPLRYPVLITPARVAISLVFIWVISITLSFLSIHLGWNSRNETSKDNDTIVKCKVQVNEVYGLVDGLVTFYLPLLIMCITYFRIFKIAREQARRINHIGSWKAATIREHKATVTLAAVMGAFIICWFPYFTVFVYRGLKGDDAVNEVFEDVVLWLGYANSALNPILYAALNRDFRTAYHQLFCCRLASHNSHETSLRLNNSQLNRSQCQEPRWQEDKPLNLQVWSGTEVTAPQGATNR
T4 sequence (P47747 whole entry, the tested form may be a part): as above
Sequence of Histamine H1 receptor (Cavia porcellus, UniProt P31389) (P31389 whole entry): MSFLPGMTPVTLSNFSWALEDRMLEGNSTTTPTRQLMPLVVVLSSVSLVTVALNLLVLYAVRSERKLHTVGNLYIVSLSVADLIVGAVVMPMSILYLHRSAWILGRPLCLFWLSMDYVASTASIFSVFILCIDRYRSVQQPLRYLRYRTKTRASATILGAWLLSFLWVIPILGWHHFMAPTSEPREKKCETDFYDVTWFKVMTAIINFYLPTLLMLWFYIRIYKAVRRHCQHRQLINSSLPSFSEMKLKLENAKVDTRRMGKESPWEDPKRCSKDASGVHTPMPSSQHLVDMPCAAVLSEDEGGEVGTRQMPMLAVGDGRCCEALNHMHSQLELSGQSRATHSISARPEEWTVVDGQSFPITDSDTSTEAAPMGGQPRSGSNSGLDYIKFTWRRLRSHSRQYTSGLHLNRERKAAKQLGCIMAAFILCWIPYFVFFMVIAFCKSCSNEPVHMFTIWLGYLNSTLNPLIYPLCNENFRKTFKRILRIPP

As for `CN(CCC(=O)/N=C(\N)NCCCc1c[nH]cn1)C(=O)c1cc2ccccc2[nH]1`, the Kb at Histamine H1 receptor [1] was 3020 nM. Besides, the concentration giving a half-maximal response (EC50) (as a rule, the concentration that produces a half-maximal response) at Histamine H3 receptor [2] was 11 nM; at Histamine H2 receptor [4], 347 nM; on Histamine H2 receptor [7] it was 3550 nM; on Histamine H4 receptor [8], 151 nM. Further, the Activity in test [3] was found to be 0.84; on Histamine H3 receptor [5] it was 0.3; at Histamine H4 receptor [6], 0.52; on Histamine H2 receptor [9] it was 0.68.
With `N/C(=N\C(=O)CNC(=O)c1cc2ccccc2[nH]1)NCCCc1c[nH]cn1`, the concentration for a half-maximal effect (EC50) on Histamine H3 receptor [2] was 15.8 nM; on Histamine H2 receptor [4], 955 nM; on Histamine H4 receptor [8] it was 28.2 nM. The Activity was found to be 0.45 at Histamine H3 receptor [5], 0.71 at Histamine H4 receptor [6] and 0.51 on Histamine H2 receptor [9].
`N/C(=N\C(=O)c1cc2ccccc2[nH]1)NCCCc1c[nH]cn1`: the pKb (usually the negative decadic logarithm of the Kb, by convention in mol/L) on Histamine H3 receptor [10] was 6.96; on Histamine H4 receptor [11], 6.43. Besides, the figures for the 50% effective concentration (EC50) on Histamine H2 receptor [4] and on Histamine H1 receptor [12] were 288 nM and 1700 nM, respectively. Also, the Activity on Histamine H3 receptor [5] was -0.38; at Histamine H4 receptor [6] it was 0.21; on Histamine H1 receptor [13] it was 0.42; on Histamine H2 receptor [9], 0.87.
In the case of `N/C(=N\C(=O)CCNC(=O)c1cc2ccccc2[nH]1)NCCCc1c[nH]cn1`, at Histamine H3 receptor [10], the negative logarithm of the Kb (pKb) is 7.17. Also, the EC50 was 83.2 nM on Histamine H2 receptor [4] and 33.1 nM on Histamine H4 receptor [8]. Also, the Activity on Histamine H3 receptor [5] is 0.1; at Histamine H4 receptor [6], 0.37; on Histamine H2 receptor [9] it was 0.33.
Regarding `N/C(=N\C(=O)Cc1c[nH]c2ccccc12)NCCCc1c[nH]cn1`, the Kb on Histamine H1 receptor [1] was 38.9 nM. In addition, the results for the negative-log Kb (pKb) at Histamine H3 receptor [10] and on Histamine H1 receptor [14] were 7.51 and 5.68, respectively. The Activity was 0.91 in test [3]; -0.15 on Histamine H3 receptor [5]; 0.7 on Histamine H4 receptor [6]; 0 on Histamine H1 receptor [13]; 0.81 on Histamine H2 receptor [9]. Moreover, the EC50 at Histamine H2 receptor [4] was 36.3 nM; on Histamine H2 receptor [7], 182 nM; at Histamine H4 receptor [8] it was 19.1 nM.
Take `CC(C)C(=O)/N=C(\N)NCCCc1c[nH]cn1`: the Kb was 7760 nM at Histamine H1 receptor [1] and 302 nM on Histamine H2 receptor [15]. In addition, the EC50 is 1.41 nM at Histamine H3 receptor [2]; 110 nM on Histamine H2 receptor [4]; 2570 nM at Histamine H1 receptor [12]; 110 nM at Histamine H2 receptor [7]; 3.72 nM on Histamine H4 receptor [8]. Moreover, the Activity in test [3] was 0.98; at Histamine H3 receptor [5] it was 0.26; at Histamine H4 receptor [6], 0.94; on Histamine H1 receptor [13] it was 0.35; on Histamine H2 receptor [9], 0.86.
With `CC(=O)/N=C(\N)NCCCc1c[nH]cn1`, the Selectivity ratio in the test listed under Homo sapiens [16] is more than 1000; in the test filed under Homo sapiens [17], more than 100. Besides, the Activity was 0.83 in test [3]; 0.27 on Histamine H3 receptor [5]; 1 on Histamine H4 receptor [6]; 0.24 on Histamine H1 receptor [13]; 0.76 at Histamine H2 receptor [9].
`CCCC(=O)/N=C(\N)NCCCc1c[nH]cn1`: the values for the Kb at Histamine H1 receptor [1] and at Histamine H2 receptor [15] were 3550 nM and 407 nM, respectively. Also, the EC50 at Histamine H3 receptor [2] was 1.58 nM; at Histamine H2 receptor [4], 141 nM; on Histamine H1 receptor [12], 2190 nM; on Histamine H2 receptor [7], 186 nM; at Histamine H4 receptor [8], 2.57 nM. The Activity turned out to be 0.97 in test [3]; 0.37 on Histamine H3 receptor [5]; 0.96 at Histamine H4 receptor [6]; 0.33 on Histamine H1 receptor [13]; 0.77 on Histamine H2 receptor [9].
With `CC(CC(=O)NC(N)=NCCCc1cnc[nH]1)c1ccccc1` (stereo not drawn), at Histamine H3 receptor [2], the EC50 was 2.51 nM.
For the compound `N/C(=N\C(=O)CCCNC(=O)c1cc2ccccc2[nH]1)NCCCc1c[nH]cn1`, the Kb at Histamine H1 receptor [1] is 741 nM. For the same compound, the values for the pKb at Histamine H3 receptor [10], on Histamine H4 receptor [11] and on Histamine H1 receptor [14] were 7.17, 7.02 and 4.96, respectively. For the same compound, the Activity in [3] is 0.9; at Histamine H3 receptor [5], -0.18; at Histamine H4 receptor [6] it was -0.06; on Histamine H1 receptor [13], 0.16; on Histamine H2 receptor [9], 0.51. The EC50 at Histamine H2 receptor [4] is 30.2 nM; at Histamine H2 receptor [7] it was 490 nM.
Turning to `CC(CC(=O)/N=C(\N)NCCCc1c[nH]cn1)c1ccccc1` (stereo not drawn), the Activity in test [3] is 0.99; at Histamine H3 receptor [5], 0.24; at Histamine H4 receptor [6] it was 0.84; on Histamine H1 receptor [13] it was 0.35; at Histamine H2 receptor [9] it was 0.87. For the same compound, the pKb at Histamine H1 receptor [14] was less than 4.9.
With `S=C(NC1CCCCC1)N1CCC(c2cnc[nH]2)CC1`, the figures for the Activity at Histamine H3 receptor [5] and on Histamine H4 receptor [6] were -0.71 and -0.95, respectively.
On to `CCC(=O)/N=C(\N)NCCCc1c[nH]cn1`, for which the Kb at Histamine H1 receptor [1] was 5130 nM; at Histamine H2 receptor [15], 347 nM. Besides, the concentration giving a half-maximal response (EC50) at Histamine H3 receptor [2] is 1.58 nM; at Histamine H2 receptor [4] it was 372 nM; on Histamine H1 receptor [12], 3470 nM. Further, the Activity in test [3] worked out at 0.94; at Histamine H3 receptor [5] it was 0.39; at Histamine H1 receptor [13] it was 0.3; at Histamine H2 receptor [9], 0.83.
In the case of `CC(=O)NC(N)=NCCCc1cnc[nH]1`, the Kb at Histamine H1 receptor [1] was 8510 nM; at Histamine H2 receptor [15] it was 363 nM. Besides, the EC50 at Histamine H3 receptor [2] is 3.63 nM; at Histamine H2 receptor [4] it was 724 nM; at Histamine H1 receptor [12], 12900 nM; at Histamine H2 receptor [7], 813 nM; at Histamine H4 receptor [8], 4.9 nM.
With `N/C(=N\C(=O)CCc1c[nH]c2ccccc12)NCCCc1c[nH]cn1`, the Kb on Histamine H1 receptor [1] is 398 nM; on Histamine H2 receptor [15], 437 nM. In addition, the figures for the pKb on Histamine H3 receptor [10] and on Histamine H1 receptor [14] were 7.57 and 5.4, respectively. In addition, the Activity is 1.01 in test [3]; -0.18 on Histamine H3 receptor [5]; 0.45 on Histamine H4 receptor [6]; 0.09 at Histamine H1 receptor [13]; 0.77 on Histamine H2 receptor [9]. For the same compound, the values for the concentration giving a half-maximal response (EC50) at Histamine H2 receptor [4], at Histamine H2 receptor [7] and on Histamine H4 receptor [8] were 81.3 nM, 77.6 nM and 7.08 nM, respectively.
As for `N=C(N)NCCCc1c[nH]cn1`, the results for the Activity on Histamine H3 receptor [5], at Histamine H4 receptor [6] and at Histamine H2 receptor [9] were 0.69, 0.83 and 0.66, respectively. The pKb at Histamine H1 receptor [14] is less than 5.

For the origin of these results see ChEMBL document CHEMBL1153419 (J Med Chem, 2009).
